# According to patent publication US20230295182A1, “SPIRO DERIVATIVES OF ALPHA-D-GALACTOPYRANOSIDES” (Idorsia Pharmaceuticals Ltd, priority 2020, published 2023):
# pIC50: −log10 of the molar value.
# Legend:
# human Gal-3 (hGal-3) = human Gal-3 (hGal-3) (Homo sapiens (Human), UniProt P17931); test: Competitive binding assay: biotinylated hGal-3 to microplate-adsorbed asialofetuin (ASF); details: Activity on hGal-3; binding to ASF-coated plates, 3 hours at 4° C.; mean values
# Procedure, shortened: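 Biotinylated hGal-3 (300-1000 ng/mL) binding to plate-adsorbed asialofetuin, with DMSO-diluted compound added, incubated 3 h at 4 °C. After washing, bound protein detected with streptavidin-peroxidase (80 ng/mL, 1 h, 4 °C) and ABTS substrate, read spectrophotometrically. IC50 given as mean of several measurements.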
# human Gal-1 (hGal-1) = human Gal-1 (hGal-1) (Homo sapiens, UniProt P09382); test: Competitive binding assay: biotinylated hGal-1 to microplate-adsorbed asialofetuin (ASF); details: Activities on hGal-1; binding to ASF-coated plates, 3 hours at 4° C.; mean values; read-out: Gal-1 IC50
# Sequence of human Gal-1 (hGal-1) (P09382 2-135 limits assumed): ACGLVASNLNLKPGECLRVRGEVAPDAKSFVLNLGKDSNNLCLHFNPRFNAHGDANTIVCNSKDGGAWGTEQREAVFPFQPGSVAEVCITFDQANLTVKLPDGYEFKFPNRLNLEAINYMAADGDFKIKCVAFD
# Procedure, shortened: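 Plate-adsorbed asialofetuin is incubated 3 h at 4 °C with biotinylated hGal-1, optionally its all-serine-substituted cysteine variant, plus compound dilutions. ABTS color after 1 h streptavidin-peroxidase (80 ng/mL) at 4 °C reports binding. Reported IC50 is a mean across repeat runs.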
# Sequence of human Gal-3 (hGal-3) (P17931 whole entry): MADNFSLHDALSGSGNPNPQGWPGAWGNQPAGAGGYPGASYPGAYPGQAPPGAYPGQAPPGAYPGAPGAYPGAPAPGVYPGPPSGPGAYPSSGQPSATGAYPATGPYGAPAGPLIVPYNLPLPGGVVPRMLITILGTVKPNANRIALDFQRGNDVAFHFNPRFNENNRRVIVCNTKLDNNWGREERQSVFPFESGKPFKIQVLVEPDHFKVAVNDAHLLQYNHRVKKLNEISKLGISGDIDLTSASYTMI
Compound,pIC50 (human Gal-3 (hGal-3)),pIC50 (human Gal-1 (hGal-1))
"CCOC(=O)N[C@H]1CC[C@]2(CC1)CC(C[C@H]1O[C@H](CO)[C@H](O)[C@H](n3cc(-c4ccc(C)c(F)c4F)nn3)[C@H]1OC)=NO2 [Example 2.09, ethyl ((5r,8R)-3-(((2R,3R,4S,5R,6R)-4-(4-(2,3-difluoro-4-methylphenyl)-1H-1,2,3-triazol-1-yl)-5-hydroxy-6-(hydroxymethyl)-3-methoxytetrahydro-2H-pyran-2-yl)methyl)-1-oxa-2-azaspiro[4.5]dec-2-en-8-yl)carbamate]",7.77,6.19
"CCOC(=O)N[C@H]1CC[C@]2(CC1)CC(C[C@H]1O[C@H](CO)[C@H](O)[C@H](n3cc(-c4ccc(F)c(F)c4F)nn3)[C@H]1OC)=NO2 [Example 2.10, ethyl ((5r,8R)-3-(((2R,3R,4S,5R,6R)-5-hydroxy-6-(hydroxymethyl)-3-methoxy-4-(4-(2,3,4-trifluorophenyl)-1H-1,2,3-triazol-1-yl)tetrahydro-2H-pyran-2-yl)methyl)-1-oxa-2-azaspiro[4.5]dec-2-en-8-yl)carbamate]",7.70,6.49
"CCOC(=O)N[C@H]1CC[C@]2(CC1)CC(C[C@H]1O[C@H](CO)[C@H](O)[C@H](n3cc(-c4ccc(Cl)c(F)c4F)nn3)[C@H]1OC)=NO2 [Example 2.11, ethyl ((5r,8R)-3-(((2R,3R,4S,5R,6R)-4-(4-(4-chloro-2,3-difluorophenyl)-1H-1,2,3-triazol-1-yl)-5-hydroxy-6-(hydroxymethyl)-3-methoxytetrahydro-2H-pyran-2-yl)methyl)-1-oxa-2-azaspiro[4.5]dec-2-en-8-yl)carbamate]",7.72,6.47
"CO[C@@H]1[C@@H](n2cc(-c3cc(F)c(F)c(F)c3)nn2)[C@@H](O)[C@@H](CO)O[C@@H]1CC1=NO[C@]2(CC[C@H](NC(C)C)CC2)C1 [Example 2.12, (2R,3R,4S,5R,6R)-2-(hydroxymethyl)-6-(((5r,8R)-8-(isopropylamino)-1-oxa-2-azaspiro[4.5]dec-2-en-3-yl)methyl)-5-methoxy-4-(4-(3,4,5-trifluorophenyl)-1H-1,2,3-triazol-1-yl)tetrahydro-2H-pyran-3-ol]",6.66,5.62
"CO[C@@H]1[C@@H](n2cc(-c3cc(F)c(F)c(F)c3)nn2)[C@@H](O)[C@@H](CO)O[C@@H]1CC1=NO[C@]2(CC[C@@H](NC(C)C)CC2)C1 [Example 2.13, (2R,3R,4S,5R,6R)-2-(hydroxymethyl)-6-(((5s,8S)-8-(isopropylamino)-1-oxa-2-azaspiro[4.5]dec-2-en-3-yl)methyl)-5-methoxy-4-(4-(3,4,5-trifluorophenyl)-1H-1,2,3-triazol-1-yl)tetrahydro-2H-pyran-3-ol]",6.26,5.15
"CCC(CC)NC1CCC2(CC1)CC(C[C@H]1O[C@H](CO)[C@H](O)[C@H](n3cc(-c4cc(F)c(F)c(F)c4)nn3)[C@H]1OC)=NO2 (stereo partly drawn) [Example 2.14, (2R,3R,4S,5R,6R)-2-(hydroxymethyl)-5-methoxy-6-((8-(pentan-3-ylamino)-1-oxa-2-azaspiro[4.5]dec-2-en-3-yl)methyl)-4-(4-(3,4,5-trifluorophenyl)-1H-1,2,3-triazol-1-yl)tetrahydro-2H-pyran-3-ol]",6.41,5.59
"CO[C@@H]1[C@@H](n2cc(-c3cc(F)c(F)c(F)c3)nn2)[C@@H](O)[C@@H](CO)O[C@@H]1CC1=NOC2(CCC(NCC(F)F)CC2)C1 (stereo partly drawn) [Example 2.15, (2R,3R,4S,5R,6R)-6-((8-((2,2-difluoroethyl)amino)-1-oxa-2-azaspiro[4.5]dec-2-en-3-yl)methyl)-2-(hydroxymethyl)-5-methoxy-4-(4-(3,4,5-trifluorophenyl)-1H-1,2,3-triazol-1-yl)tetrahydro-2H-pyran-3-ol]",6.55,5.14
